Holding throughout (experiment): NCI tumour cell line growth inhibition, 48 h
In test [1] the test system is 786-0 renal.
In test [2] the test system is HCT-116 colon.
The test system of test [3] is HOP-62 NSCLC.
Test [4] concerns HOP-92 NSCLC.
Test [5] relates to K-562 leukemia.
In test [6] the test system is NCI-H460 lung.
In test [7] the test system is RXF 393 renal.
Test [8] has as its system SF-295 CNS.
The subject of test [9] is TK-10 renal.
For test [10], the system named is SR leukemia.

We go through twelve compounds from PubChem BioAssay (NCI).

Values joined by “and” are separate entries in the source; they are usually repeats but may differ in a detail not shown here. Identical values can stand only once.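 Briefly, cells in 96-well plates were exposed to five compound concentrations for 48 h, and endpoints were estimated by linear interpolation. At the GI50, growth is halved. TGI denotes the concentration required for complete inhibition of growth.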

Consider `CN1C(=O)/C(=C2\S/C(=N\c3nnc(-c4ccccc4)o3)NC2=O)c2ccccc21`, for which the GI50 is over 100 µM in test [1]; 92.4 µM in [2]; 68.8 µM in test [3]; over 100 µM in test [4]; over 100 µM in test [5]; 65.6 µM in [6]. The GI50 in test [7] was over 100 µM; in test [8], 41.2 µM; in test [9] it was over 100 µM. Further, the TGI in [1], in test [2], in test [3], in test [4], in test [5] and in [6] was over 100 µM throughout. Also, the TGI in test [7], in test [8] and in [9] was over 100 µM each time.
As to `COC(=O)CC1C2(C)C3=C(C)C(c4ccoc4)CC3OC2C2OC(=O)C3(C)C=CC(=O)C1(C)C23` (stereo unspecified), the TGI worked out at 2.34 µM in test [1]; 2.28 µM in test [2]; 9.1 µM in [3]; 5.52 µM in test [4]; 4.82 µM in test [5]; 3.26 µM in [6]. The TGI is 3 µM in test [7], 13 µM in test [8] and 5.94 µM in [9].
`Cc1cncc(-c2nc(NCCc3c[nH]c4ccccc34)c3ncn(C(C)C)c3n2)c1`: the GI50 was 2.01 µM in test [1]; 3.88 µM in [2]; 6.01 µM in [3]; 3.63 µM in test [4]; 3.33 µM in test [6]; 2.54 µM in test [7]. The GI50 was 2.74 µM in [8] and 10.3 µM in [9]. In addition, the TGI was 6.01 µM in test [1]; over 100 µM in test [2]; 22.9 µM in test [3]; 15.5 µM in test [4]; 13.3 µM in test [6]; 11.2 µM in [7]. The TGI in [8] is 10.8 µM; in [9], 52.8 µM.
In the case of `CCC(C)C(=O)O[C@H]1C(=O)O[C@@H]2C[C@H]3C(C)=CC(=O)[C@@H](O)[C@]3(C)[C@H]3[C@@H](O)[C@H](O)[C@@]4(C)OC[C@]32[C@@H]14` (stereo partly specified), the TGI in [1] is 0.645 µM; in test [2], under 0.01 µM; in test [5], 0.214 µM; in test [6], under 0.0185 µM; in test [7] it was under 0.0345 µM; in test [10], under 0.0204 µM. The compound further came in with a TGI in [9] of under 0.0389 µM.
Consider `CN(C)c1ccc(/C=C(\C#N)c2ccccc2)cc1`, for which the GI50 in [1] was 0.56 µM and 0.763 µM and 0.437 µM; in [2] it was 0.384 µM and 0.441 µM and 0.414 µM; in test [3], 1.37 µM and 0.993 µM and 0.567 µM; in test [5], 0.194 µM and 0.337 µM and 0.35 µM; in test [6], 0.356 µM and 0.415 µM and 0.431 µM; in test [7] it was 0.394 µM and 0.662 µM and 0.817 µM. Further, the GI50 in test [8] was 0.225 µM and 0.421 µM; in test [10] it was 0.0866 µM and 0.308 µM and 0.255 µM; in [9] it was 0.553 µM and 0.999 µM and 4.9 µM. The TGI was > 100 µM and 58.6 µM and 30.2 µM in test [1]; > 60.6 µM and > 100 µM and 29.6 µM in [2]; 59.9 µM and > 100 µM in [3]; over 100 µM in [5]; 3.09 µM and 5.77 µM in [7]; 0.99 µM and 5.97 µM in test [8]. Moreover, the TGI is 19 µM and 37.6 µM in test [10]; over 100 µM in test [9].
Regarding `N#CC(C(=O)/C(=N/NC(=O)c1ccccc1O)C(C#N)c1ccc(Br)cc1)c1ccc(Br)cc1` (stereo unspecified), the TGI in test [1] was 27 µM; in test [2], 26.6 µM; in test [3], 29.5 µM; in [4], 31.1 µM; in test [5], over 100 µM; in test [6] it was 40 µM. The results for the TGI in test [7], in [8] and in test [9] were 16 µM, 28.6 µM and 39.1 µM, respectively.
Consider `CC(=O)NC(CS)C(=O)O` (stereo unspecified), for which the GI50 in [1], in test [2], in [7], in test [8], in test [10] and in test [9] was over 100 µM each time. The TGI in [1] was > 100 µM and 58100 µM; in test [2] it was > 100 µM and 52800 µM; in [3], 45500 µM; in [6] it was 62300 µM; in test [7], > 100 µM and 69300 µM; in test [8], > 100 µM and 57700 µM. Besides, the TGI was over 100 µM in test [10]; > 100 µM and 76500 µM in test [9].
As for `N#CC(C#N)=Cc1ccc(C(O)P(=O)(O)O)cc1` (stereo unspecified), the TGI in test [1], in [2], in test [3], in test [4], in test [5] and in [6] was over 100 µM in each case. Moreover, the TGI in test [8] and in [9] was over 100 µM throughout.
For `Cc1ccc(C(=O)C(c2nc3n(c2O)C(=N)N=N3)c2nc3n(c2O)C(=N)N=N3)cc1` (stereo unspecified), the TGI in test [1], in test [4], in test [5], in test [6], in test [7] and in test [8] was over 100 µM in each case. The compound further showed a TGI in test [9] of over 100 µM.
For `Cc1ccccc1C=NC12CC3CC(CC(C3)C1)C2`, the TGI in [1], in test [2], in [3], in test [4], in [5] and in [6] was over 100 µM throughout. Also, the TGI in [7], in test [8] and in [9] was over 100 µM each time.
On to `CCc1cccc(C)c1N1C(=O)C(=O)C(c2nc3ccccc3o2)/C(=N/NC(=S)NN)C1=O` (stereo unspecified), for which the TGI in test [1], in [2], in test [3], in test [4], in test [5] and in [6] was over 100 µM each time. The TGI in test [7], in test [8] and in test [9] was over 100 µM in each case.
Consider `N#CC(C(=O)CCC(=O)Nc1ccc(Cl)cc1)c1ccc(Cl)cc1` (stereo unspecified), for which the TGI in [1], in [2], in test [3], in test [4], in test [5] and in test [6] was over 100 µM each time. In addition, the TGI in [8] and in test [9] was over 100 µM in each case.
